Legend:
[1] = Encapsulation efficiency by Ribogreen assay; assay type: physicochemical; details: nanoparticle composition with SEAP mRNA, formulated at pH 5; dendron:DOPE:cholesterol:DMG-PEG2k 1:0.6:2.88:0.1
Excerpt: As used herein, “encapsulated” can refer to a nanoparticle that provides an active agent or therapeutic agent with full encapsulation, partial encapsulation, or both. In an embodiment, the therapeutic agent is a nucleic acid (as a non-limiting example, a messenger RNA), In a preferred embodiment, the nucleic acid is fully encapsulated in the nanoparticle. In the context of nucleic acid therapeutic agents, full encapsulation may be determined by a Ribogreen® assay. RiboGreen® is an ultra-sensitive fluorescent nucleic acid stain for quantitating oligonucleotides and single-stranded DNA or RNA in solution (available from Thermo Fisher Scientific-US).
Nanoparticles containing the deoxy sugar-modified polyesteramine dendron (e.g PE Dendron_G2-2 deoxyGlucose-A1-Ricinoleic):DOPE:cholesterol:DMG-PEG2k at molar ratios of 1:0.6:2.88:0.1 were formulated using NanoAssembir Benchtop (Precision NanoSystems Inc, Vancouver, BC, Canada)). RNA was diluted with DNase/RNase-Free, endotoxin free distilled water and sterile citrate buffer to a final desired pH. […] Encapsulation efficiency was measured to be 95% for the nanoparticle composition containing PE Dendron_G2-2 deoxyGlucose-A1-Ricinoleic and SEAP mRNA (formulated at pH 5) using Ribogreen® assay (Geall et al. 10.1073/pnas.1209367109 which is incorporated herein by reference as if fully set forth). […]

[2] = Hydrodynamic size measurement by dynamic light scattering (DLS); assay type: physicochemical; details: nanoparticle composition with SEAP mRNA
BHK cells = experiment: In vitro SEAP production; assay type: cell-based
Procedure: To test the ability of the nanoparticles formulated with different deoxy sugar based dendrons to express SEAP in vitro, BHK cells were treated with nanoparticles. Each well of a 12 well dish of BHKs was treated with 20 μL (approximately 1 μg) of each formulation product diluted into a final volume of 500 μL with a 1:1 Optimem:PBS mix. The nontreated wells had 500 μL of 50/50 PBS/OptiMEM. Twenty four hours post-treatment or transfection, conditioned media from each culture was collected. The amount of SEAP was quantified using the Invitrogen NovaBright™ Phospha-Light™ EXP Assay kits for SEAP detection according to the manufacturer's protocol. The amount of SEAP in the media samples are reported in Arbitrary Units (A.U.) as measured in a BioTek Synergy HTX microplate reader. Error bars are ±S.E.M. Referring to FIG. 4a, it was observed that the SEAP amount was higher with the PE Dendron_G2-2 deoxyGlucose-A1-Ricinoleic than the other regioisomers: PE Dendron_G2-1 deoxyGlucose-A1-Ricinoleic and PE Dendron_G2-6 deoxyGlucose-A1-Ricinoleic. […]

SEAP expression = experiment: In vivo SEAP production, deoxy sugar dendrons; parameters: species or system mice; details: FIG. 4 legend; SEAP mRNA nanoparticles
Procedure: To test formulations of different monosaccharides based dendrons, the secreted embryonic alkaline phosphatase SEAP reporter system was used. For in vivo tests, mice were injected with nanoparticles at a dose of 5 ug of SEAP mRNA, and 16 hrs later, serum was collected from the mice. The amount of […] using the Invitrogen NovaBright™ Phospha-Light™ EXP Assay kits for SEAP detection according to the manufacturer's protocol. The amount of SEAP in the mouse serum samples are reported in Arbitrary Units (A.U.) as measured in a BioTek Synergy HTX microplate reader. Error bars are±S.E.M. Referring to FIG. 4b, it was observed that the SEAP amount was higher with the PE Dendron_G2-1 deoxyGlucose-A1-Ricinoleic than the other regioisomers: PE Dendron_G2-2 deoxyGlucose-A1-Ricinoleic and PE Dendron_G2-6 deoxyGlucose-A1-Ricinoleic. Referring to FIG. 5b, it was also observed that the SEAP amount was higher with the PE Dendron_G2-2 deoxyGlucose-A5-Ricinoleic than PE Dendron_G2-2 deoxyGlucose-A1-Ricinoleic indicating pKa of the ionizable delivery molecules influences the ability of the nanoparticles to deliver functionally active RNA.

SARS-CoV-2 Spike protein = experiment: COVID-19 Spike trimer direct serum ELISA after vaccination; assay type: in vivo

With CCCCCC[C@H](O)C/C=C\CCCCCCCC(=O)NCCCN(C)CCCNC(=O)OCC(C)(COC(=O)NCCCN(C)CCCNC(=O)CCCCCCC/C=C\C[C@@H](O)CCCCCC)C(=O)OCC(C)(COC(=O)C(C)(COC(=O)NCCCN(C)CCCNC(=O)CCCCCCC/C=C\C[C@@H](O)CCCCCC)COC(=O)NCCCN(C)CCCNC(=O)CCCCCCC/C=C\C[C@@H](O)CCCCCC)C(=O)OCc1cn([C@H]2C(O)O[C@H](CO)[C@@H](O)[C@@H]2O)nn1 (some centres unmarked) the Encapsulation efficiency [1] was 95%, the “Nanoparticle size at strongest intensity (Z average, DLS)” value [2] was 113.3 nm·days and the “Polydispersity index of size distribution” value ([2]; single peak) was “low”. For the same compound, the “SEAP amount in conditioned media” value (BHK cells; FIG. 4a, BHK cells, 24 h, about 1 μg, compared with regioisomers 1 deoxyGlucose-A1 and 6 deoxyGlucose-A1) was “higher”, the “SEAP protein production in vitro” value (BHK cells; FIG. 4 legend, SEAP mRNA nanoparticles) was “resulted in SEAP protein production” and the “SEAP protein production in vivo” value (SEAP expression) was “resulted in SEAP protein production”. The “Immunogenicity upon IM administration (anti-Spike IgG titer)” value (SARS-CoV-2 Spike protein; compared with Dlin-MC3-DMA control) was “superior” and the “Endpoint dilution titer of serum anti-Spike IgG” value (SARS-CoV-2 Spike protein; compared with PE Dendron_G2-2 deoxyGlucose-A5-Ricinoleic) was “higher”.

— patent publication US12410448B2, “Nanoparticle compositions containing sugar functionalized nucleic acid carriers” (TIBA Biotech LLC, priority 2021, dated 2025)
